Measured values taken from the CombiSolv-Exp solvation set (Vermeire and Green 2021).

Test: solvent given as SMILES

CC#N
Conditions	solvation free energy, 298 K [kcal/mol]
in Brc1cccc2ccccc12	-3.45
in C1CCOC1	-4.3
in C1COCCO1	-4.45
in CC(=O)N(C)C	-4.8
in CC(=O)OCc1ccccc1	-4.08
in CC(C)=O	-3.83
in CC(C)CCCC(C)CCCC(C)CCCCC(C)CCCC(C)CCCC(C)C	-1.87
in CCC(C)=O	-4.46
in CCCCCC	-2.41
in CCCCCCC	-2.28
in CCCCCCCC	-2.17
in CCCCCCCCCCCCCCCC	-2.04
in CCCCCCCCO	-3.15
in CCCCCl	-3.63
in CCCCN(C=O)CCCC	-4.08
in CCCCO	-3.55
in CCCCOCCCC	-2.89
in CCO	-3.96
in CCOC(C)=O	-4.19
in CCOCC	-3.63
in CN1CCCCC1=O	-4.65
in CN(C)C=O	-4.65
in CNC(C)=O	-4.23
in CO	-4.04
in COC(C)(C)C	-3.67
in COC(C)=O	-4.53
in Cc1ccc(C)cc1	-3.44
in ClC(Cl)(Cl)Cl	-3.03
in ClC(Cl)Cl	-4.43
in ClCCCl	-4.41
in ClCCl	-4.71
in Clc1ccccc1	-3.74
in NC=O	-4.37
in O	-3.92
in O=C1CCCCC1	-4.3
in [2H]O[2H]	-4.1
in c1ccc2ncccc2c1	-3.98

CC(C)OC(=O)c1ccccc1C(=O)OC(C)C
Conditions	solvation free energy, 298 K [kcal/mol]
in O	-7.42

OCCCc1ccccc1
Conditions	solvation free energy, 298 K [kcal/mol]
in O	-6.92

Cc1ccc(C)c2ccccc12
Conditions	solvation free energy, 298 K [kcal/mol]
in O	-2.82

CCc1ccc2ccccc2c1
Conditions	solvation free energy, 298 K [kcal/mol]
in O	-2.26

O=[N+]([O-])c1cc[n+]([O-])cc1
Conditions	solvation free energy, 298 K [kcal/mol]
in CC(C)CC(C)(C)C	-7.06
in CCCCCC	-7.08
in CCCCCCC	-7.12
in CCCCCCCC	-7.13
in CCCCCCCCCC	-7.16

CC1=CC(=O)C(C(C)C)CC1 (centres undefined)
Conditions	solvation free energy, 298 K [kcal/mol]
in O	-4.51

CC(C)C1=CC2=CCC3C(C)(C)CCCC3(C)C2CC1 (centres undefined)
Conditions	solvation free energy, 298 K [kcal/mol]
in O	-0.08

C=COC(C)=O
Conditions	solvation free energy, 298 K [kcal/mol]
in CC(C)=O	-4.46
in CCN(CC)C(C)=O	-4.2
in CCNC(C)=O	-3.83
in CCNC=O	-3.92
in CN1CCCC1=O	-4.16
in O	-2.67
in O=CN1CCOCC1	-3.98

Cc1cccc(N)c1
Conditions	solvation free energy, 298 K [kcal/mol]
in O	-5.69

N#Cc1ccccc1
Conditions	solvation free energy, 298 K [kcal/mol]
in CCCCCCC	-5.33
in CCCCCCCCO	-6
in O	-4.11
in [2H]O[2H]	-3.82

Cc1ccc(O)cc1C
Conditions	solvation free energy, 298 K [kcal/mol]
in CCCCCC	-6.89
in CCCCCCC	-6.89
in CCCCCCCC	-6.85
in O	-6.51

CCCCCCCCCCCCCCCCCCCCCCC
Conditions	solvation free energy, 298 K [kcal/mol]
in CC(=O)N(C)C	-15.7
in CC(C)(C)O	-14.2
in CC(C)=O	-13.4
in CCC(C)=O	-14.3
in CCC(C)O	-14.1
in CCCCOC(C)=O	-14.9
in CCOC(C)=O	-14.4
in CN(C)C=O	-15.8
in COC(C)=O	-13.7
in O	5.07

CCCCCCC
Conditions	solvation free energy, 298 K [kcal/mol]
in BrC(Br)C(Br)Br	-3.34
in Brc1ccccc1	-4.35
in C1CCC(C2CCCCC2)CC1	-4.48
in C1CCCCC1	-4.83
in C1CCOC1	-4.58
in C1COCCO1	-3.86
in C=CCCCC	-4.71
in C=CCCCCCC	-4.63
in C=CCCCCCCCC	-4.55
in C=CCCCCCCCCCCCCCC	-4.24
in CC1CCS(=O)(=O)C1	-2.68
in CC1COC(=O)O1	-2.54
in CC#N	-3.18
in CC(=O)CC(C)C	-4.36
in CC(=O)N(C)C	-3.36
in CC(=O)O	-3.43
in CC(=O)c1ccccc1	-3.69
in CC(C)(C)O	-3.96
in CC(C)=O	-3.84
in CC(C)CC(C)(C)C	-4.6
in CC(C)CCCC(C)CCCC(C)CCCCC(C)CCCC(C)CCCC(C)C	-4.16
in CC(C)CCO	-3.97
in CC(C)CO	-3.92
in CC(C)O	-3.81
in CC(C)OC(C)C	-4.63
in CC(O)CO	-2.33
in CCBr	-4.71
in CCC(C)=O	-4.12
in CCCC#N	-3.69
in CCCC(=O)OCC	-4.35
in CCCC(C)=O	-4.17
in CCCC(C)O	-3.99
in CCCCC	-4.77
in CCCCC(CC)COC(=O)CCCCC(=O)OCC(CC)CCCC	-4.01
in CCCCC(CC)COC(=O)c1ccccc1C(=O)OCC(CC)CCCC	-3.79
in CCCCCC	-4.77
in CCCCCC(C)=O	-4.2
in CCCCCCCC	-4.62
in CCCCCCCCC	-4.57
in CCCCCCCCC=CCCCCCCCC(=O)OCC(COC(=O)CCCCCCCC=CCCCCCCCC)OC(=O)CCCCCCCC=CCCCCCCCC	-4.09
in CCCCCCCCCC	-4.53
in CCCCCCCCCCCC	-4.43
in CCCCCCCCCCCCCCCC	-4.34
in CCCCCCCCCCCCO	-3.99
in CCCCCCCCO	-4.02
in CCCCCCO	-4
in CCCCCCOC(C)=O	-4.27
in CCCCCl	-4.61
in CCCCN(C=O)CCCC	-3.9
in CCCCO	-3.95
in CCCCOC(=O)c1ccccc1C(=O)OCCCC	-3.88
in CCCCOC(C)=O	-4.23
in CCCCOCCCC	-4.57
in CCCCl	-4.81
in CCCO	-3.83
in CCN1CCCC1=O	-3.49
in CCN(CC)C(C)=O	-3.74
in CCN(CC)CC	-4.68
in CCNC(C)=O	-3.51
in CCNC=O	-3.25
in CCO	-3.7
in CCOC(=O)c1ccccc1C(=O)OCC	-3.35
in CCOC(C)(C)C	-4.62
in CCOC(C)=O	-4.09
in CCOCC	-4.66
in CCOCCO	-3.57
in CCOCCOCCOCC	-4.04
in CCOc1ccccc1	-4.15
in CN1CCCC1=O	-3.2
in CN1CCCCC1=O	-3.41
in CN1CCN(C)C1=O	-3.1
in CN(C)C=O	-3.16
in CN(C)P(=O)(N(C)C)N(C)C	-3.67
in CNC(C)=O	-3.34
in CNC=O	-2.85
in CO	-3.39
in COC(C)(C)C	-4.68
in COC(C)=O	-3.89
in COCCO	-3.24
in COCCOCCOCCOCCOC	-3.41
in COc1ccccc1	-4.06
in CS(C)=O	-2.27
in Cc1ccc(C)cc1	-4.58
in Cc1cccc(O)c1	-3.53
in Cc1ccccc1	-4.57
in Cc1ccccn1	-4.16
in ClC(Cl)(Cl)Cl	-4.81
in ClC(Cl)Cl	-4.64
in ClCCCl	-4.09
in ClCCl	-4.45
in Clc1ccccc1	-4.56
in FC(F)(F)C(F)(F)C(F)(F)C(F)(F)C(F)(F)C(F)(F)C(F)(F)C(F)(F)F	-2.98
in FC(F)(F)C(F)(F)C(F)(F)C(F)(F)C(F)(F)C(F)(F)C(F)(F)F	-3.2
in FC(F)(F)C(F)(F)C(F)(F)C(F)(F)C(F)(F)C(F)(F)F	-3.06
in Fc1ccccc1	-4.51
in ICI	-2.72
in N#CCCCCC#N	-2.45
in N#CCCOCCC#N	-1.99
in N#Cc1ccccc1	-3.76
in NC=O	-0.97
in NCCO	-1.34
in Nc1ccccc1	-2.99
in O=C1CCCCC1	-4
in O=C1CCCO1	-2.72
in O=C(O)C(Cl)Cl	-3.36
in O=CN1CCOCC1	-2.52
in O=Cc1ccco1	-2.96
in OCCCCCO	-2.53
in OCCCCO	-2.45
in OCCCO	-2.09
in OCCO	-1.22
in OCCOCCO	-1.9
in OCCOCCOCCO	-1.97
in OCCOCCOCCOCCO	-2.13
in OCCS	-2.46
in OCCc1ccccc1	-3.37
in OCc1ccccc1	-3.24
in OCc1ccco1	-2.87
in S=C=S	-4.76
in c1ccc2c(c1)CCCC2	-4.37
in c1ccc2ncccc2c1	-3.86
in c1ccc(C2CCCCC2)cc1	-4.33
in c1ccccc1	-4.55
in c1ccncc1	-3.9

C1CC1
Conditions	solvation free energy, 298 K [kcal/mol]
in C1COCCO1	-1.94
in CC(C)O	-1.58
in CCCCCC	-1.98
in CCCCO	-1.72
in CCCO	-1.57
in O	0.75

C=CC(C)(CCC=C(C)C)OC=O (centres undefined)
Conditions	solvation free energy, 298 K [kcal/mol]
in O	-3.6

CS(C)(=O)=O
Conditions	solvation free energy, 298 K [kcal/mol]
in O	-10.1

c1ccc(-c2ccccc2)cc1
Conditions	solvation free energy, 298 K [kcal/mol]
in C1COCCO1	-9.29
in CC(C)(C)O	-8.06
in CC(C)CC(C)(C)C	-8.32
in CC(C)CC(C)O	-8.13
in CC(C)CCO	-8.16
in CC(C)CO	-8.03
in CC(C)O	-8.09
in CC(C)OCCO	-8.73
in CCC(C)(C)O	-8.3
in CCC(C)O	-8.19
in CCCC(C)CO	-8.24
in CCCC(C)O	-8.25
in CCCCC(CC)CO	-8.27
in CCCCCC	-8.53
in CCCCCCC	-8.54
in CCCCCCCC	-8.53
in CCCCCCCCC=CCCCCCCCC(=O)OCC(COC(=O)CCCCCCCC=CCCCCCCCC)OC(=O)CCCCCCCC=CCCCCCCCC	-8.8
in CCCCCCCCCC	-8.49
in CCCCCCCCO	-8.39
in CCCCCCCO	-8.36
in CCCCCCO	-8.34
in CCCCCO	-8.34
in CCCCOCCCC	-8.85
in CCCCOCCO	-8.65
in CCCO	-8.25
in CCCOCCO	-8.76
in CCO	-8.23
in CCOCC	-8.59
in CCOCCO	-8.74
in CN(C)C=O	-9.33
in CO	-7.88
in COC(C)(C)C	-9.04
in COC(C)CCO	-8.68
in ClC(Cl)(Cl)Cl	-9.22
in ClCCCl	-9.34
in ClCCl	-9.4
in Clc1ccccc1	-9.26
in O	-2.66

FC(F)C(F)(F)F
Conditions	solvation free energy, 298 K [kcal/mol]
in CCCCCCCC(=O)OCC(COC(=O)CCCCCCC)OC(=O)CCCCCCC	-0.79
in CCCCCCCCC	-0.39
in CCCCCCCCO	-0.57
in CN(C)C=O	-1.54
in O	1.45
